Values quoted from earlier work as cited in US20030134332A1, “Diagnosis of endothelial dysfunction by nitric oxide bioactivity index” (priority 2001, published 2003).

Tests used:
[1] = test system: plasma isoprostane (oxidant stress marker); details: diabetic men, 600 mg twice daily for seven days
[2] = test system: wound healing in diabetic mice

Substance: 2-(2,3-dihydro-5-acetoxy-4,6,7-trimethylbenzofuranyl) acetic acid [raxofelast]
- fall of plasma isoprostane levels in diabetics [1]: 50%
- effect on wound healing [2]: stimulates wound healing
